Assay results published in patent US20190314379A1, “METHODS OF USING CANNABINOID CB2 RECEPTOR AGONIST COMPOSITIONS TO SUPPRESS AND PREVENT OPIOID TOLERANCE AND WITHDRAWAL IN A SUBJECT” (Indiana University Research and Technology Corporation, priority 2018, published 2019).
Entries after “also recorded” stand apart in the source; their conditions may differ.

How the values were obtained:
mouse CB2 receptors [1] = target: T1, mouse CB2 receptors (Mus musculus, UniProt P47936); assay: Arrestin recruitment (PathHunter CHO K1CNR2, enzyme complementation); format: cell-based
T1 construct: expressed in transfected cells
T1 sequence (P47936 whole entry): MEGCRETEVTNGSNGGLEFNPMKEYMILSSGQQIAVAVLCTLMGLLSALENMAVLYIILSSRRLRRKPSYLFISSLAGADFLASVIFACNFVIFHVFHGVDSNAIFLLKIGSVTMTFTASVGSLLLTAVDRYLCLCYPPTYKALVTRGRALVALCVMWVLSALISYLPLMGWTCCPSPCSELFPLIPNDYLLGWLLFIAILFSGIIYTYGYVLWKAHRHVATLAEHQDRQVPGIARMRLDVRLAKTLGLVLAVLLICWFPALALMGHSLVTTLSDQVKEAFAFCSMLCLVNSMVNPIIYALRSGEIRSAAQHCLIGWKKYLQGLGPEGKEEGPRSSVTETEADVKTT

mouse CB2 receptors [2] = target: T1, mouse CB2 receptors; assay: On-cell western for receptor internalization, HEK mCB2; format: cell-based
mouse CB2 receptors [3] = target: T1, mouse CB2 receptors; assay: Forskolin-stimulated cAMP accumulation (cyclase), HEK mCB2; format: cell-based
mouse CB2 receptors [4] = target: T1, mouse CB2 receptors; assay: Phosphorylated ERK1/2 detection, HEK mCB2; format: cell-based
human CB2 [5] = target: T2, human CB2 (Homo sapiens, UniProt P34972); assay: On-cell western for receptor internalization, HEK hCB2; format: cell-based; design: expressed in transfected cells; details: read-out: Internalization Emax
T2 sequence (P34972 whole entry): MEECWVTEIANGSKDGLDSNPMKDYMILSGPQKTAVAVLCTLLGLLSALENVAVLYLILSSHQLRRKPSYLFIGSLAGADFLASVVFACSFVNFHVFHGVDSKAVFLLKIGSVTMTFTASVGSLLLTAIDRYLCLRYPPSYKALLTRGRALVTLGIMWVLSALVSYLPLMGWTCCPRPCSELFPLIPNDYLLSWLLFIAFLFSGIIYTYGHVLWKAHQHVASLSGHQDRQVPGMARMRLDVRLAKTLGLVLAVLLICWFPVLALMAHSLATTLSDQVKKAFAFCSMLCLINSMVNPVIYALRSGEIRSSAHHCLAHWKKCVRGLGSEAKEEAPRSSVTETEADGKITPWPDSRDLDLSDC

human CB2 [6] = target: T2, human CB2; assay: Forskolin-stimulated cAMP accumulation (cyclase), HEK hCB2; format: cell-based; design: expressed in transfected cells; time of inhibition of forskolin-stimulated cAMP accumulation: dose or concentration left out as unconfirmed
human CB2 [7] = target: T2, human CB2; assay: Phosphorylated ERK1/2 detection, HEK hCB2; format: cell-based; design: expressed in transfected cells
mouse CB2 receptors [8] = target: T1, mouse CB2 receptors; assay: Myo-inositol phosphate-1 (IP1) accumulation, HEK mCB2; format: cell-based; details: via mouse CB2
[9] = tested on: paclitaxel-induced mechanical allodynia; assay: Paclitaxel-induced mechanical allodynia (electronic von Frey); format: in vivo, mouse; details: 10 mg/kg per day i.p.×12 days
Procedure: (§1) In all studies, the experimenter was blinded to the treatment condition, and mice were randomly assigned to experimental conditions. Paclitaxel (4 mg/kg i.p.) was administered four times on alternate days (cumulative dose, 16 mg/kg i.p.) to induce neuropathic pain as described previously by our group (Deng et al., 2015). Control mice received an equal volume of cremophor-vehicle. Development of paclitaxel-induced allodynia was assessed on day 0, 4, 7, 11, and 14.
(§2) Effects of pharmacologic manipulations were assessed at 30 minutes after drug administration during the maintenance phase of paclitaxel-induced neuropathy (i.e., beginning day 18-20 after initial paclitaxel injection).
(§3) In experiments 2 and 3, pharmacologic manipulations were performed once daily for 12 consecutive days in each of the two phases of chronic treatment. Four days separated phase 1 and phase 2 chronic dosing in all studies comprising two phases of chronic dosing. Experiments 2 and 3 were performed concurrently using overlapping cohorts that were tested with a single vehicle (phase 1), vehicle (phase 2) group.
(§4) We then assessed the antiallodynic efficacy of chronic systemic administration of vehicle or morphine (10 mg/kg per day i.p.×12 days) administered during phase 2 in the same animals. Responsiveness to mechanical and cold stimulation was evaluated on treatment days 1, 4, 8, and 12 during phase 1 and on treatment days 16, 19, 23, and 27 during phase 2 (i.e., phase 2 started on day 16).
(§5) In experiment 4, we evaluated the impact of coadministration of morphine (10 mg/kg i.p.×12 days) with a submaximal dose of LY 2828360 (0.1 mg/kg per day i.p.×12 days) in WT and CB2 KO mice.
Paw withdrawal thresholds (grams) to mechanical stimulation were measured in duplicate for each paw using an electronic von Frey anesthesiometer supplied with a 90-g probe (model Alemo 2390-5; IITC, Woodland Hills, Calif.) as described previously. Mice were placed on an elevated metal mesh table and allowed to habituate under individual, inverted plastic cages to the testing platform for at least 20 minutes until exploratory behavior had ceased. Alter the habituation period, a force was applied to the midplantar region of the hind paw with a semiflexible tip connected to the anesthesiometer. Mechanical stimulation was terminated when the animal withdrew its paw, and the value of the applied force was recorded in grams. Mechanical paw withdrawal thresholds were obtained in duplicate for each paw and are reported as the mean of duplicate determinations from each animal, averaged across animals, for each group.

[10] = tested on: paclitaxel-induced cold allodynia; assay: Paclitaxel-induced cold allodynia (acetone); format: in vivo, mouse; details: 10 mg/kg per day i.p.×12 days
Procedure: as §1, §2, §3, §4, §5
Response time (seconds) spent attending to (i.e., elevating, licking, biting, or shaking) the paw stimulated with acetone (Sigma-Aldrich) was measured in triplicate for each paw to assess cold allodynia as previously published. An acetone bubble (approximately 5 to 6 p.1) formed at the end of a blunt 1-ml syringe hub was gently applied to the plantar surface of the hind paw. Care was taken not to apply mechanical stimulation to the hind paw with the syringe itself. The total time the animal spent attending to the acetone-stimulated paw (i.e., elevation, shaking, or licking) was recorded over 1 minute after acetone application. Acetone was applied three times to each paw with a 3-minute interval between applications. Values for each animal were calculated as the mean of six determinations of acetone responsiveness derived from each mouse.

[11] = tested on: naloxone-precipitated opioid withdrawal; assay: Naloxone-precipitated opioid withdrawal in paclitaxel-treated mice; format: in vivo, mouse
Procedure: Alter the last injection of morphine (on day 28 for two-phase treatments, on day 13 for coadministration treatment), we challenged WT or CB2KO mice from experiments 2, 3, and 4 with vehicle, followed 30 minutes later by naloxone (5 mg/kg i.p.) to precipitate opioid receptor-mediated withdrawal. Mice were video-recorded for subsequent scoring of withdrawal-like behaviors for a 30-minute interval after challenge with vehicle or naloxone.
Mice were video-taped, and the number of jumps was scored in 5-minute intervals for a total observation period of 30 minutes after challenge with either saline or naloxone (5 mg/kg i.p.).

[12] = tested on: morphine analgesia and antinociceptive tolerance; details: rats, with morphine; cited from earlier work
[13] = WT mice, days 16-27, 10 mg/kg/day

CCCCCCC(C)(C)c1ccc([C@@H]2C[C@H](O)CC[C@H]2CCCO)c(O)c1 (relative stereo) [CP55940, reference compound]
EC50 (mouse CB2 receptors [1]): 2.3 nM | arrestin recruitment (mouse CB2 receptors [1]; CHO cells expressing mCB2, 90-minute drug incubation): recruited arrestin in a concentration-dependent manner | Emax (mouse CB2 receptors [1]; read-out: Arrestin Emax): 125% | EC50 (mouse CB2 receptors [2]): 7.4 nM | receptor internalization (mouse CB2 receptors [2]; HEK mCB2): concentration dependently internalized the mCB2 | Emax (mouse CB2 receptors [2]; read-out: Internalization Emax): 49.1% | EC50 (mouse CB2 receptors [3]): 6.6 nM | forskolin-induced cAMP levels (mouse CB2 receptors [3]; HEK mCB2, 1 μM final concentration, 5 minutes): attenuated forskolin-induced cAMP levels; also recorded: stronger inhibitory effect than AM1710 | cAMP levels in the absence of forskolin (mouse CB2 receptors [3]; HEK mCB2, compound alone): alone did not change cAMP levels | forskolin-stimulated cAMP after PTX treatment (mouse CB2 receptors [3]; mCB2, 1 μM, PTX 300 ng/ml overnight): modestly increased cAMP accumulation at 5 minutes; also recorded: abolished the decrease in forskolin-stimulated cAMP | time of efficacious inhibition of forskolin-stimulated adenylyl cyclase (mouse CB2 receptors [3]; mCB2, 1 μM, time course): ~5 min | inhibition of forskolin-stimulated cAMP accumulation, concentration response (mouse CB2 receptors [3]; mCB2, 5 minutes): potently and efficaciously inhibited cAMP accumulation | Emax (mouse CB2 receptors [3]; read-out: Cyclase Emax): 52.8% | ERK1/2 phosphorylation time course (mouse CB2 receptors [4]; mCB2, 1 μM): increased phosphorylated ERK1/2 at 5-, 10-, 30-, and 40-minute time points | ERK1/2 phosphorylation after PTX treatment (mouse CB2 receptors [4]; mCB2, 1 μM, PTX): abolished the CP55940-mediated phosphorylation of ERK1/2 at the 5-minute time point, but it was retained at the 40-minute time point | ERK1/2 phosphorylation, concentration response (mouse CB2 receptors [4]; mCB2, 5 minutes): concentration dependency increased ERK1/2 phosphorylation | ERK1/2 phosphorylation, concentration response (mouse CB2 receptors [4]; mCB2, 20 minutes): decreased ERK1/2 phosphorylation | effect on ERK1/2 phosphorylation in presence of SR144528 (mouse CB2 receptors [4]; mCB2, 20 minutes, SR144528 1 μM): blocked | EC50 (mouse CB2 receptors [4]; pERK1/2 EC50, mouse CB2, 05 mins incubation): 10.5 nM | EC50 (mouse CB2 receptors [4]; pERK1/2 EC50, mouse CB2, 20 mins incubation): 1.5 nM | Emax (mouse CB2 receptors [4]; read-out: pERK1/2 Emax, mouse CB2, 05 mins incubation): 136% | Emax (mouse CB2 receptors [4]; read-out: pERK1/2 Emax, mouse CB2, 20 mins incubation): 20.3% | Emax (human CB2 [5]): 33.9% | cAMP levels, compound alone (no forskolin) (human CB2 [6]; HEK hCB2): alone did not change the cAMP levels | duration of decrease in cAMP (human CB2 [6]; HEK hCB2): up to 10 minutes | inhibition of forskolin-induced cAMP levels, time course (human CB2 [6]; HEK hCB2, 1 μM final concentration): produced early inhibition of forskolin-induced cAMP levels at 5 minutes | inhibition of forskolin-stimulated cAMP after PTX pretreatment (human CB2 [6]; HEK hCB2, 1 μM final concentration, PTX): blocked the inhibition of forskolin-stimulated cAMP | inhibition of forskolin-stimulated cAMP accumulation (human CB2 [6]; hCB2, 5 minutes of treatment): potent and efficacious | time of inhibition of forskolin-stimulated cAMP accumulation (human CB2 [6]; hCB2, time course): 5 min | inhibition of cAMP accumulation after PTX pretreatment (human CB2 [6]; hCB2, time course, PTX): abolished this effect | Emax (human CB2 [6]; read-out: Cyclase Emax): 59.6% | ERK1/2 phosphorylation time course (human CB2 [7]; hCB2, 1 pM): efficaciously increased ERK1/2 phosphorylation after 5 minutes, 10 minutes, and 30 minutes | ERK1/2 phosphorylation after PTX treatment (human CB2 [7]; hCB2, 1 pM, PTX): retained | stimulated phosphorylation of ERK1/2 in presence of SR144528 (human CB2 [7]; hCB2, SR144528 (1 pM)): completely blocked | Emax (human CB2 [7]; read-out: pERK1/2 Emax, human CB2, 05 mins incubation): 95.7% | Emax (human CB2 [7]; read-out: pERK1/2 Emax, human CB2, 30 mins incubation): 49.4%

Cc1c(C(=O)c2cccc3ccccc23)c2cccc3c2n1[C@H](CN1CCOCC1)CO3 [WIN55212-2, reference compound]
IP1 accumulation (mouse CB2 receptors [8]): increased IP1 accumulation

CN1CC[C@]23c4c5ccc(O)c4O[C@H]2[C@@H](O)C=C[C@H]3[C@H]1C5 [morphine, reference compound]
mechanical allodynia, chronic phase 1 morphine ([9]; CB2KO mice): completely absent on day 8 and day 12 | mechanical allodynia, chronic phase 1 morphine ([9]; WT mice, days 4, 8, 12): tolerance developed to the antiallodynic effects of morphine | mechanical allodynia, phase 2 morphine after phase 1 vehicle [9, 13]: only suppressed paclitaxel-induced mechanical and cold allodynia on day 16; also recorded: no longer efficacious | cold allodynia, chronic phase 1 morphine ([10]; CB2KO mice): completely absent on day 8 and day 12 | cold allodynia, chronic phase 1 morphine ([10]; WT mice, days 4, 8, 12): tolerance developed to the antiallodynic effects of morphine | cold allodynia, phase 2 morphine after phase 1 vehicle [10, 13]: only suppressed paclitaxel-induced mechanical and cold allodynia on day 16; also recorded: no longer efficacious | naloxone-precipitated jumping, Veh (1)-Mor (2) vs Veh (1)-Veh (2) ([11]; paclitaxel-treated CB2KO mice): precipitated jumping | number of naloxone-precipitated jumps, vehicle (1)-morphine (2) vs vehicle (1)-vehicle (2) ([11]; paclitaxel-treated WT mice, morphine 10 mg/kg per day×12 days, naloxone 5 mg/kg i.p.): exhibited a greater number of jumps | naloxone-precipitated withdrawal, Mor (1)-LY (2) vs Veh (1)-Veh (2) ([11]; paclitaxel-treated WT mice, morphine in phase 1): did not precipitate withdrawal

CCCCCOc1c(OC)ccc2cc(C(=O)NCc3ccc4c(c3)OCO4)c(=O)[nH]c12 [JTE907]
morphine analgesia and morphine antinociceptive tolerance [12]: decreased morphine analgesia and attenuated morphine antinociceptive tolerance
